pIC50: −log10 of the molar value. Counter-ions that a name gives are not always drawn.
Experiments:
[1] = system: IL-12 activation of STAT4 in NK-92 cells; test: IL-12 activation of STAT4 in NK-92 cells using AphaLISA SureFire technology; type: cell-based; conditions: Homo sapiens, NK92; IL-12 activation of STAT4 in NK-92 cells, AlphaLISA SureFire; average IC50; read-out: IL12 pSTAT4 IC50
Experimental: IL-2 is added freshly to the medium with each medium refreshment step. Cells are cultured in a humidified incubator at 37° C. 5% CO2.
A subcultured fraction of NK-92 cells is washed once in culture medium without rhIL-2 the day before the experiment and incubated overnight in a culture flask.
5% CO2. […] NK-92 cells are triggered with rhIL-12 for 30 min at 37° C. 5% CO2.
After 30 min of cytokine stimulation the cells are lysed by addition of 15 μL 5× lysis buffer (supplemented with the AlphaLISA kit). After 10 minutes, plates are frozen at −80° C. overnight and the next day the levels of phospho-STAT4 are quantified using the AlphaLISA SureFire ULTRA p-STAT4 (Tyr693) (Perkin Elmer, Catalogue number ALSU-PST4-A10K) according to the manufacturers instructions. AlphaLISA signal (relative light units) is measured using an Envision (Perkin Elmer).
(§1) The percentage inhibition is calculated as: […]
RLU(trigger/veh): Relative lumescent signal determined in presence of vehicle and trigger
RLU(test compound): Relative luminescent signal determined in presence of test compounds and trigger
PIN values are plotted for compounds tested in dose-response and IC50 values are derived using GraphPad Prism Software applying non-linear regression (sigmoidal) curve fitting. The data are expressed as the average IC50 from different experiments.

[2] = system: IFNα activation of STAT1 in PBMC; test: IFNα activation of STAT1 in PBMC; type: cell-based; conditions: Homo sapiens; IFNα activation of STAT1 in PBMC; average IC50; read-out: IFNα signaling inhibitory potency IC50
Experimental: After these 2 wash steps the cell pellet is dissolved in ammonium chloride buffer (1.5 M NH4Cl, 100 mM NaHCO3 and 10 mM Na2.EDTA) for lysis of the red blood cells.
PBMC are treated with test compound for 30 min at 37° C. 5% CO2. […] After 30 min of test compound/vehicle pre-treatment, PBMC are stimulated for 30 min at 37° C. 5% CO2 with recombinant human IFNα (PeproTech, catalog number 300-02A) at a final concentration of 5 ng/mL by addition of 20 μL (10× concentrated) cytokine trigger to obtain a final volume of 200 μL per well.
After 30 min of cytokine stimulation, 200 μL of cell suspension is transferred to a 96-well V-bottom plate, centrifugated for 5 min at 1000 rpm to pellet cells, followed by removal of supernatant.
as §1
RCLU(vehicle control): Relative Chemiluminescent signal determined in presence of vehicle and trigger
RCLU(test compound): Relative Chemiluminescent signal determined in presence of test compounds and trigger
RCLU(positive control): Relative Chemiluminescent signal determined in presence of positive control and trigger
PIN values are plotted for compounds tested in dose-response and average IC50 values are derived using GraphiPad Prism Software applying non-linear regression (sigmoidal) curve fitting.

[3] = biological target: T1, Recombinant human TYK2 catalytic domain (amino acids 871-1187) (Homo sapiens, UniProt P29597); test: TYK2 radioactive assay polyGT substrate; type: biochemical; further: 0.1 µM ATP
T1 construct: catalytic domain (amino acids 871-1187)
T1 sequence (P29597 871-1187): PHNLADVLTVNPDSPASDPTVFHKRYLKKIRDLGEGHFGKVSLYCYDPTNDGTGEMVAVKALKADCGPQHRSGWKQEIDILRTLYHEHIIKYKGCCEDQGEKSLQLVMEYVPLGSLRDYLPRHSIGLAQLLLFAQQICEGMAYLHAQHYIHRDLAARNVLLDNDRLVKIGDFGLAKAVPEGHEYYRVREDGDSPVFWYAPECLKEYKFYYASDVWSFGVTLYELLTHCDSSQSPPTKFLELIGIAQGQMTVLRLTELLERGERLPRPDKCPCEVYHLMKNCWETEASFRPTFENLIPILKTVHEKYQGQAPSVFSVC
Experimental: After 120 min at 30° C., reactions were stopped by adding 25 μL/well of 150 mM phosphoric acid. […] Plates were washed 6 times with 300 μL per well of a 75 mM phosphoric acid solution and the bottom of the plates is sealed. […] Kinase activity is calculated by subtracting counts per min (cpm) obtained in the presence of a positive control inhibitor (10 μM staurosporine) from cpm obtained in the presence of vehicle. The ability of a test compound to inhibit this activity (or percentage inhibition) is determined as: […]
cpm test compound=cpm determined for sample with test compound present cpm control=cpm determined for sample with positive control inhibitor cpm vehicle=cpm determined in the presence of vehicle
Dose dilution series were prepared for the compounds enabling the testing of dose-response effects in the TYK2 assay and the calculation of the IC50 for each compound. Each compound is routinely tested at concentration of 20 μM followed by a 1/5 serial dilution, 10 points in a final concentration of 1% DMSO.

SMILES	pIC50 [1]	pIC50 [3]	pIC50 [2]
Cc1cc(C#N)ncc1Oc1cc(Nc2ccc(C(=O)N3CC(CO)C3)cn2)c2ncn(C)c2n1 [Compound 118, 5-[7-[[5-[3-(hydroxymethyl)azetidine-1-carbonyl]-2-pyridyl]amino]-3-methyl-imidazo[4,5-b]pyridin-5-yl]oxy-4-methyl-pyridine-2-carbonitrile]	6.52	8.55	6.96
Cc1cc(C#N)ncc1Oc1cc(Nc2ccc(OC3CN(C)C3)nn2)c2ncn(C)c2n1 [Compound 90, 4-methyl-5-[3-methyl-7-[[6-(1-methylazetidin-3-yl)oxypyridazin-3-yl]amino]imidazo[4,5-b]pyridin-5-yl]oxypyridine-2-carbonitrile]	5.82	7.91	6.54
Cc1cc(C#N)ncc1Oc1cc(Nc2ccc(C(=O)N3CC(C)(O)C3)cn2)c2ncn(C)c2n1 [Compound 119, 5-[7-[[5-(3-hydroxy-3-methyl-azetidine-1-carbonyl)-2-pyridyl]amino]-3-methyl-imidazo[4,5-b]pyridin-5-yl]oxy-4-methyl-pyridine-2-carbonitrile]	6.58	8.59	7.09
COC1CN(C(=O)c2ccc(Nc3cc(Oc4cnc(C#N)cc4C)nc4c3ncn4C)nc2)C1 [Compound 103, 5-[7-[[5-(3-methoxyazetidine-1-carbonyl)-2-pyridyl]amino]-3-methyl-imidazo[4,5-b]pyridin-5-yl]oxy-4-methyl-pyridine-2-carbonitrile]	7.20	8.56	7.17
Cc1cc(C#N)ncc1Oc1cc(Nc2ccc(C(=O)N3CCC(C)(O)CC3)cn2)c2ncn(C)c2n1 [Compound 138, 5-[7-[[5-(4-hydroxy-4-methylpiperidine-1-carbonyl)pyridin-2-yl]amino]-3-methylimidazo[4,5-b]pyridin-5-yl]oxy-4-methylpyridine-2-carbonitrile]	6.48	8.78	7.04
Cc1cc(C#N)ncc1Oc1cc(Nc2ccc(N3CC(CN(C)C)C3)nn2)c2ncn(C)c2n1 [Compound 40, 5-{7-[6-(3-Dimethylaminomethyl-azetidin-1-yl)-pyridazin-3-ylamino]-3-methyl-3H-imidazo[4,5-b]pyridin-5-yloxy}-4-methyl-pyridine-2-carbonitrile]	5.45	8.01	6.94
Cc1cc(C#N)ncc1Oc1cc(Nc2ccc(C(=O)N3CCNCC3)cn2)c2ncn(C)c2n1 [Compound 178, 4-methyl-5-[3-methyl-7-[[5-(piperazine-1-carbonyl)pyridin-2-yl]amino]imidazo[4,5-b]pyridin-5-yl]oxypyridine-2-carbonitrile]	5.59	8.47	6.72

The remaining molecules from weak to strong by pIC50 [1], led by results:

pIC50 [1]	pIC50 [3]	SMILES	pIC50 [2]
5.06	8.47	Cc1cc(C#N)ncc1Oc1cc(Nc2ccc(C(=O)N3C[C@H](O)[C@@H](N4CCOCC4)C3)cn2)c2ncn(C)c2n1 [Compound 154, 5-{7-[5-((3S,4S)-3-Hydroxy-4-morpholin-4-yl-pyrrolidine-1-carbonyl)-pyridin-2-ylamino]-3-methyl-3H-imidazo[4,5-b]pyridin-5-yloxy}-4-methyl-pyridine-2-carbonitrile]	6.45
6.45	8.60	Cc1cc(C#N)ncc1Oc1cc(Nc2ccc(C(=O)N3CC(O)C3)cn2)c2ncn(C)c2n1 [Compound 96, 5-[7-[[5-(3-hydroxyazetidine-1-cabonyl)-2-pyridyl]amino]-3-methyl-imidazo[4,5-b]pyridin-5-yl]oxy-4-methyl-pyridine-2-carbonitrile]	7.14
6.46	8.44	Cc1cc(C#N)ncc1Oc1cc(Nc2ccc(C(=O)N3C[C@@H](C)O[C@H](C)C3)cn2)c2ncn(C)c2n1 (racemic) [Compound 149, 4-methyl-5-[3-methyl-7-[[5-[rac-(2R,6R)-2,6-dimethylmorpholine-4-carbonyl]pyridin-2-yl]amino]imidazo[4,5-b]pyridin-5-yl]oxypyridine-2-carbonitrile]	6.66
6.68	8.67	Cc1cc(C#N)ncc1Oc1cc(Nc2ccc(C(=O)N3CCO[C@@H](C)C3)cn2)c2ncn(C)c2n1 [Compound 144, 4-methyl-5-[3-methyl-7-[[5-[(2S)-2-methylmorpholine-4-carbonyl]pyridin-2-yl]amino]imidazo[4,5-b]pyridin-5-yl]oxypyridine-2-carbonitrile]	6.92
6.69	8.92	Cc1cc(C#N)ncc1Oc1cc(Nc2ccc(C(=O)N3CC4CC3CO4)cn2)c2ncn(C)c2n1 (stereo not drawn) [Compound 158, 4-methyl-5-[3-methyl-7-[[5-(2-oxa-5-azabicyclo[2.2.1]heptane-5-carbonyl)pyridin-2-yl]amino]imidazo[4,5-b]pyridin-5-yl]oxypyridine-2-carbonitrile]	7.06
6.71	8.09	Cc1cc(C#N)ncc1Oc1cc(Nc2ccc(CN3CCOCC3)cn2)c2ncn(C)c2n1 [Compound 82, 4-methyl-5-[3-methyl-7-[[5-(morpholin-4-ylmethyl)pyridin-2-yl]amino]imidazo[4,5-b]pyridin-5-yl]oxypyridine-2-carbonitrile formate salt]	6.90
6.97	8.54	COCC1CN(C(=O)c2ccc(Nc3cc(Oc4cnc(C#N)cc4C)nc4c3ncn4C)nc2)C1 [Compound 104, 5-[7-[[5-[3-(methoxymethyl)azetidine-1-carbonyl]-2-pyridyl]amino]-3-methyl-imidazo[4,5-b]pyridin-5-yl]oxy-4-methyl-pyridine-2-carbontrile]	7.19
7.05	8.63	Cc1cc(C#N)ncc1Oc1cc(Nc2ccc(C(=O)N3CC(OC(C)C)C3)cn2)c2ncn(C)c2n1 [Compound 137, 4-methyl-5-[3-methyl-7-[[5-(3-propan-2-yloxyazetidine-1-carbonyl)pyridin-2-yl]amino]imidazo[4,5-b]pyridin-5-yl]oxypyridine-2-carbonitrile]	7.21
7.30	8.71	Cc1cc(C#N)ncc1Oc1cc(Nc2ccc(N3CCO[C@@H](C)C3)nn2)c2ncn(C)c2n1 [Compound 44, 4-Methyl-5-{3-methyl-7-[6-((S)-2-methyl-morpholin-4-yl)-pyridazin-3-ylamino]-3H-imidazo[4,5-b]pyridin-5-yloxy}-pyridine-2-carbonitrile]	7.10
7.31	8.80	Cc1cc(C#N)ncc1Oc1cc(Nc2ccc(N3C[C@@H](C)O[C@@H](C)C3)nn2)c2ncn(C)c2n1 [Compound 43, (±)-5-{7-[6-((2R,6S)-2,6-Dimethyl-morpholin-4-yl)-pyridazin-3-ylamino]-3-methyl-3H-imidazo[4,5-b]pyridin-5-yloxy}-4-methyl-pyridine-2-carbonitrile]	7.15

— US11564923B2, “Compounds and pharmaceutical compositions thereof for the treatment of inflammatory disorders” (Galapagos NV, priority 2017, dated 2023)
